pIC50: −log10 of the molar value. Read-outs that look alike come from different tables or passages of the source.

We go through 15 compounds from patent US12319655B2, “RAF kinase inhibitors and methods of use thereof” (Deciphera Pharmaceuticals, LLC, priority 2021, dated 2025).

For assay [1], the target named is A-Raf kinase (SEQ. ID No: 1) (Homo sapiens (Human), UniProt P10398, Y301D/Y302D). The assay can be described thus: Biochemical Assay for A-Raf (1). To be noted: Table J. Summed up:
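A-Raf Y301D/Y302D at 5.55 nM phosphorylates 30.1 nM MEK with 1 mM ATP in pH 7.5 Tris buffer, 1% DMSO. Activity was read continuously as NADH oxidation at 340 nm in a pyruvate kinase/lactate dehydrogenase coupled system for 6 h at 30 °C. Rates from 4–5 h were converted to percent inhibition, and IC50 came from a four-parameter fit.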

Assay [2] deals with B-Raf (V600E) (SEQ. ID NO: 4) kinase (Homo sapiens (Human), UniProt P15056, V600E). The assay can be described thus: Biochemical Assay for B-Raf (V600E) (1). To be noted: Table J, BRAF V600E. Summed up: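 Coupled pyruvate kinase/lactate dehydrogenase assay: 0.03 nM B-Raf V600E, 30.1 nM MEK, 1 mM ATP, pH 7.5 Tris/MgCl2 buffer, 1% DMSO. NADH oxidation followed at 340 nm for 6 h at 30 °C; rate from 3–4 h converted to percent inhibition, IC50 by four-parameter fit.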

A further assay has as its system A375 cells. The assay is described as follows: A375 Cell Proliferation Assay (1). The class given is cell-based. As to conditions: Homo sapiens, A-375. Summed up:
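Resazurin fluorescence (excitation 540 nm, emission 600 nm, after a further 5-6 h) gave IC50s from triplicate compound dilution series.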

A further assay relates to H2405 cells. The assay is described as follows: H2405 Cell Proliferation Assay (1). It counts as cell-based. To be noted: Homo sapiens, NCI-H2405. An outline of the steps:
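Viability was read by resazurin reduction (ex 540 nm, em 600 nm; 5-6 h with 40 μL of 440 μM stock) after 67-72 h compound exposure at 37 °C.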

The mark [3] stands for this setting: biochemical assay (1), read-out: ARAF (1).
The mark [4] stands for this setting: biochemical assay (1), read-out: BRAF VE (1).
Setting [5] is: assay version (1), read-out: ARAF (1) IC50.
Setting [6] is: assay version (1), read-out: BRAF VE (1) IC50.

Sequence of A-Raf kinase (SEQ. ID No: 1) (P10398 other isoform, or with tags, fused parts or gaps Y301D (already in the parent)/Y302D (already in the parent)): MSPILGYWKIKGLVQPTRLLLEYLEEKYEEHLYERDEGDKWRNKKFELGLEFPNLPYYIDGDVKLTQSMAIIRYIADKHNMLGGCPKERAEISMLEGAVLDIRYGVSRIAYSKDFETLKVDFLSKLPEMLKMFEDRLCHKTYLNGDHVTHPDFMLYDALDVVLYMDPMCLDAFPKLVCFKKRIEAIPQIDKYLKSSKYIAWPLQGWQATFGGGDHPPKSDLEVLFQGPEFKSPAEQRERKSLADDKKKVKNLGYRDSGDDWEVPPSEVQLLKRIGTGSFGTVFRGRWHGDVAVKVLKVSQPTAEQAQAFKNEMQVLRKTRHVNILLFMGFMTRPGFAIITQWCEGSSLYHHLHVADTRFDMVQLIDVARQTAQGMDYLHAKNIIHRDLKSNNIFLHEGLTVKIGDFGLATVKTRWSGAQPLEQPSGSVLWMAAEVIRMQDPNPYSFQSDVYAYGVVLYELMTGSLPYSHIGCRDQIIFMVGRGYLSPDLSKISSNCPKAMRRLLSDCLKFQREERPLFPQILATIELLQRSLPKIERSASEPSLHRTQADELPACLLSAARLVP
Sequence of B-Raf (V600E) (SEQ. ID NO: 4) kinase (P15056 416-766 V600E): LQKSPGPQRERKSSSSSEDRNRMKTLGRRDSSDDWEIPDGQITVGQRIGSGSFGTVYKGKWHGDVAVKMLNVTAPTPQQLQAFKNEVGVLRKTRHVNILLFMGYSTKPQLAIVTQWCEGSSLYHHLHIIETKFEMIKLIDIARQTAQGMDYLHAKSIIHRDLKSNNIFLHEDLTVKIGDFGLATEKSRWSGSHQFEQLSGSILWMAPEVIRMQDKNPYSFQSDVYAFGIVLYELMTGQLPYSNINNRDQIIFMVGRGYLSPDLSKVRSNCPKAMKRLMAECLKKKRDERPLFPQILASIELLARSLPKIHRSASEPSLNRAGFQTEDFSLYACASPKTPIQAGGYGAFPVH

Turning to `CNC(=O)c1cc(-c2cncc(-c3cc(NC(=O)c4ccnc(C(C)(C)F)c4)ccc3C)c2)ncn1` [Example 379], the pIC50 was 5.00 to 6.00 in assay [1] (setting [3]), at least 7.00 in assay [2] (setting [4]), at least 7.00 in the assay on A375 cells and 6.30 to 7.00 in the assay on H2405 cells.
As for `Cc1ccc(NC(=O)c2cn(C(C)C)nc2C)cc1-c1cc(-c2ccnc(NC(=O)C3CC3)c2)cnn1` [Example 373], the pIC50 in assay [1] (setting [3]) is 5.00 to 6.00; in assay [2] (setting [4]) it was 6.30 to 7.00; in the assay with A375 cells, 5.00 to 6.00; with H2405 cells it was 5.00 to 6.00.
For the compound `CC(=O)Nc1cc(-c2cc(-c3cc(NC(=O)c4ccnc(C(F)(F)F)c4)ccc3C)nc(N(C)C)n2)ccn1` [Example 41, N-(3-(6-(2-acetamidopyridin-4-yl)-2-(dimethylamino)pyrimidin-4-yl)-4-methylphenyl)-2-(trifluoromethyl)isonicotinamide], the pIC50 in assay [1] (setting [5]) was 5.00 to 6.00; in assay [2] (setting [6]) it was at least 7.00; in the assay with A375 cells, 6.30 to 7.00; in the assay with H2405 cells, at least 7.00.
For the compound `Cc1ccc(NC(=O)c2ccnc(C(F)(F)F)c2)cc1-c1ccnc(-c2ccnc(NC(=O)C3CC3)c2)c1` [Example 54], the pIC50 was 5.00 to 6.00 in assay [1] (setting [5]), at least 7.00 in assay [2] (setting [6]), 6.30 to 7.00 in the assay with A375 cells and at least 7.00 with H2405 cells.
As to `CNC(=O)c1cc(-c2cncc(-c3cc(NC(=O)c4ccnc(C(C)(C)C#N)c4)ccc3C)n2)ccn1` [Example 86], the pIC50 was 5.00 to 6.00 in assay [1] (setting [5]), at least 7.00 in assay [2] (setting [6]), at least 7.00 in the assay with A375 cells and at least 7.00 in the assay with H2405 cells.
`Cc1ccc(NC(=O)c2cnn(CC(F)(F)F)c2)cc1-c1cncc(-c2ccnc(C(N)=O)c2)c1` [Example 381]: the pIC50 was 5.00 to 6.00 in assay [1] (setting [3]), 6.30 to 7.00 in assay [2] (setting [4]), 5.00 to 6.00 with A375 cells and 5.00 to 6.00 in the assay with H2405 cells.
For the compound `CNC(=O)c1cc(-c2cncc(-c3cc(C(=O)Nc4cnn(C(C)C)c4)ccc3C)n2)ccn1` [Example 81], the pIC50 in assay [1] (setting [5]) is 5.00 to 6.00; in assay [2] (setting [6]) it was at least 7.00; with A375 cells it was 5.00 to 6.00; in the assay with H2405 cells it was 5.00 to 6.00.
`CNC(=O)c1cc(-c2ccnc(-c3cc(NC(=O)c4ccnc(C(C)(C)F)c4)ccc3C)c2)ccn1` [Example 378]: the pIC50 is 5.00 to 6.00 in assay [1] (setting [3]), at least 7.00 in assay [2] (setting [4]), at least 7.00 in the assay with A375 cells and 6.30 to 7.00 in the assay on H2405 cells.
`Cc1ccc(NC(=O)c2ccnc(C(C)(C)F)c2)cc1-c1cncc(-c2cc(NC(=O)C3CC3)ncn2)c1` [Example 394]: the pIC50 in assay [1] (setting [3]) was 6.30 to 7.00; in assay [2] (setting [4]) it was at least 7.00; in the assay with A375 cells, at least 7.00; in the assay on H2405 cells it was at least 7.00.
Take `Cc1ccc(NC(=O)c2ccnc(C3(C#N)CC3)c2)cc1-c1cncc(-c2cc(NC(=O)C3CC3)ncn2)c1` [Example 395]: the pIC50 is 6.00 to 6.30 in assay [1] (setting [3]), at least 7.00 in assay [2] (setting [4]), at least 7.00 in the assay on A375 cells and at least 7.00 in the assay on H2405 cells.
With `Cc1ccc(NC(=O)c2ccnc(C(C)(C)C#N)c2)cc1-c1cccc(-c2cc(NC(=O)C3CC3)ncn2)c1` [Example 77], the pIC50 is 5.00 to 6.00 in assay [1] (setting [5]), at least 7.00 in assay [2] (setting [6]), at least 7.00 with A375 cells and at least 7.00 with H2405 cells.
Turning to `Cc1cc(F)c(NC(=O)c2ccnc(C(C)(C)C#N)c2)cc1-c1ccnc(-c2ccnc(NC(=O)C3CC3)c2)c1` [Example 76], the pIC50 was 5.00 to 6.00 in assay [1] (setting [5]), at least 7.00 in assay [2] (setting [6]) and at least 7.00 in the assay with A375 cells.
`COCC(=O)Nc1cc(-c2cccc(-c3cc(NC(=O)c4ccnc(C(F)(F)F)c4)ccc3C)c2)ccn1` [Example 57]: the pIC50 in assay [1] (setting [5]) is 5.00 to 6.00; in assay [2] (setting [6]) it was at least 7.00; with A375 cells, 6.30 to 7.00.
For `CC(=O)Nc1cc(-c2cc(-c3cc(NC(=O)c4ccnc(C(C)(C)C#N)c4)ccc3C)nc(C)n2)ccn1` [Example 89], in that order: 5.00 to 6.00, at least 7.00 and 6.30 to 7.00.
For the compound `Cc1cc(-c2cc(-c3cc(NC(=O)c4ccnc(C(C)(C)C#N)c4)ccc3C)ccn2)ccn1` [Example 49], the values for the pIC50 (in assay [1] (setting [5]); in assay [2] (setting [6]); in the assay with A375 cells) were 5.00 to 6.00, at least 7.00 and 6.00 to 6.30, respectively.
